Measurements taken from patent US6949533B2, “6,7-Oxygenated steroids and uses related thereto” (Inflazyme Pharmaceuticals Ltd., priority 1996, dated 2005).
Like-named read-outs stand apart in the source and are kept apart here.

Experiments:
guinea pig ileum = assay: antigen-induced contraction of ileum from sensitized guinea pigs; settings: Cavia porcellus, read-out: Percentage Inhibition, 30 μM compound, n = 3-4
Procedure: The ability of compounds to inhibit allergen-induced contraction of ileum from sensitized animals is indicative of antiallergic activity. Sensitized guinea pig ileum is particularly useful in measuring the immediate allergic response.
The guinea pig ileum has been used to evaluate the ability of compounds to inhibit allergan-induced histamine and mediator release causing smooth muscle contraction. Guinea pigs were sensitized by an intraperitoneal injection of 100 mg ovalbumin and an intramuscular injection of 50 mg ovalbumin on day 0, followed by a second intramuscular injection of 50 mg ovalbumin on day 1. […] Segments of ileum were prepared and suspended, with muscle contractions being measured in the longitudinal plane, in Tyrode's buffer at 37° C. and aerated with 5% CO2 in O2. Tissues were suspended under a resting tension of 2 grams and isometric contractions were measured using force-displacement transducers coupled to a polygraph. Tissues were stimulated with 3 μM histamine 3 times to ensure reproducible contractions were obtained. Tissues were then incubated with each compound (30 μM) or 0.15% dimethylsulphoxide (DMSO) as a control, for 20 min, after which time the tissues were challenged with 100 μg/ml ovalbumin. The magnitude of the contraction induced by OA in the presence of each compound was expressed as a percentage of the contraction obtained to 3 μM histamine. The protective effects of the various compounds on OA-induced contraction of guinea pig ileum from sensitized animals are summarized in Table 4.

[1] = system: passively sensitized rat mast cells (RBL-2H3); assay: antigen-induced release of hexosaminidase from RBL-2H3 cells; format: cell-based; settings: for inhibition at 25 µM: Rattus norvegicus
Procedure: (§1) The anti-allergic effects of various polyhydroxylated steroids of the present invention were evaluated by measuring their effect on antigen-induced secretion of hexosaminidase from a passively sensitized rat mast cell line (RBL-2H3) and a murine mast cell line (MC/9). The ability of agents to inhibit the release of mast cell granule contents, e.g., histamine and hexosaminidase, is indicative of anti-allergy and/or anti-asthma activity.
(§2) Hexosaminidase is released from the mast cell granule along with histamine and other mediators during antigen challenge. RBL-2H3 and MC/9 cells were grown in culture and passively sensitized to dinitrophenol (DNP) using anti-human-DNP (IgE). Cells were incubated with each compound (25 μM) for 1 hour at 37° C. and then stimulated with 0.1 mg/ml DNP-HSA (antigen) for 15 min. Aliquots of the supernatant were removed and used to measure the amount of hexosaminidase released during challenge with the antigen. The amount of hexosaminidase present in the supernatant was determined calorimetrically by monitoring the enzymatic metabolism of p-nitrophenyl-N-acetyl-β-D-glucosaminide (p-NAG) over a period of 1 hour at 410 nm. The effect of each compound was determined as a percentage of the antigen-induced response (minus background release) obtained in the presence of DMSO alone, as set forth in Tables 2 and 3. These values were used to determine the degrees of inhibition of antigen-induced hexosaminidase release from the cells.

rabbit platelets = assay: PAF-induced aggregation of rabbit platelets; format: cell-based; settings: Oryctolagus cuniculus, Platelet, read-out: % Inhibition at 80 μM
Text: Within the present invention, it was discovered that the polyhydroxylated steroids as well as intermediates described in previous sections inhibited the aggregation of platelets caused by platelet activating factor (PAF). PAF is a local mediator of thrombosis and prevention of the formation of blood clots has direct implication in the treatment of thrombosis and associated cardiovascular diseases. The assay system used to evaluate the ability of compounds to inhibit the aggregation of platelets in response to exogenous stimuli is indicative of anti-thrombotic or thrombolytic activity.
Platelets were isolated from rabbit blood and prepared at a density of 2.4×10^8 cells/ml in Tyrodes buffer (pH 7.2) containing Ca^2+. Platelets were incubated with each compound for 5 min at 37° C. prior to stimulation. Platelets were stimulated with 1 nM platelet activating factor (PAF; EC75) in the presence of each of the compounds and aggregation was monitored for 5 min. Compounds were solubilized in dimethylsulfoxide (DMSO) and aggregation was measured as a percentage of the response to 1 nM PAF obtained in the presence of the appropriate concentration of DMSO. The degree of inhibition caused by each sample was calculated using the control response in the presence of DMSO equal to 100%.

isolated trachea = system: isolated trachea; parameters: species or system guinea pig; settings: compound 20 μM, study 1
Procedure: The effects of a number of the compounds described herein on allergen-induced bronchoconstriction were evaluated for anti-asthma activity. The ability of a compound to inhibit allergen-induced decreases in lung function in sensitized guinea pigs in response to antigen-challenge is indicative of anti-asthma activity. In particular, the model system is useful in the evaluation of the potential effects of a compound in the treatment of the early asthmatic reaction (EAR) when severe bronchoconstriction occurs.
Guinea pigs were exposed to a nebulized solution of 1% ovalbumin (OA) in saline for 15 min. […] Tracheal rings were prepared and bathed in Krebs-Henseleit solution at 37° C. and aerated with 5% CO2 in […]. Tissues were suspended under a resting tension of 2 g and isometric contractions were measured using force-displacement transducers coupled to a polygraph. Tissues were incubated with each compound or 0.1% dimethylsulfoxide (as a control) for 20 min, after which increasing concentrations of OA (0.001-100 μg/ml) were added to the tissue. After the final concentration of OA was added and the response was recorded, the tissues were stimulated with 100 μM methacholine which caused maximum contraction of the trachea. The magnitude of the contraction induced by OA in the presence of each compound was expressed as a percentage of the maximum contraction obtained using methacholine (100 μM).

mouse mast cells (MC/9) = assay: antigen-induced release of hexosaminidase from MC/9 cells; format: cell-based; settings: for inhibition at 25 µM: Mus musculus, MC9, 25 μM compound, read-out: Percentage Inhibition (mean) MC/9 cells
Procedure: as §1, §2

NF-κB = NF-κB gel shift binding assay in TPA-stimulated RBL-2H3 cells; format: cell-based; settings: Rattus norvegicus, compound 1 μM, 2 hours preincubation, read-out: Percent Inhibition of Response to TPA (0.1 μM)
sensitized guinea pigs = assay: allergen-induced changes in lung resistance and compliance in vivo; parameters: species or system guinea pig; settings: 5 mg/kg/day for 4 days p.o.
Procedure: Female Cam Hartley guinea pigs (350-400 g) are sensitized to ovalbumin by exposure of the guinea pigs to a nebulized solution of 1% ovalbumin in saline for 15 minutes. After 10-12 days, the animals are found to be acutely sensitized to the allergen (ovalbumin). Animals are treated by oral gavage, under light halothane anesthesia, with 300 μl polyethyleneglycol-200 (PEG) or 5 mg/Kg of test compound in 300 μl of PEG. Animals are treated once daily for 4 days with the final dose administered 2 hours prior to allergen challenge. Alternatively, compounds were delivered by inhalation, using a Hudson nebulizer driven by 6 psi oxygen, providing a single dose of 50 μg/Kg 20 min prior to challenge.
An animal is anaesthetized using ketamine ([…]; i.p.) and xylazine (10 mg/Kg; i.p.) and 1% halothane during the surgical procedure. A tracheostomy is performed and a water-filled esophageal cannula is inserted prior to positioning the animal in a body plethysmograph. The tracheal cannula is attached to a fixed tracheal cannula in the plethysmograph. Cardiac function is monitored using electrocardiography. The animal is paralyzed using pancuronium bromide (0.8 mg/Kg; i.m.) and ventilated with 3 ml tidal breaths using a Harvard small animal ventilator, at a frequency of 60 breaths per minute. Pulmonary resistance and dynamic lung compliance data are obtained from volume, flow and transpulmonary pressure signals using multipoint analysis.
Pulmonary function is continually monitored throughout the experiment and measurements of lung resistance and lung compliance are made at various time-points (e.g., 0, 1, 2, 3, 4, 5, 10, 20 and 30 min) following antigen challenge. Data is collected on a computer-linked physiological measurement system using DIREC Physiological recording software and analyzed using ANADAT software designed for lung mechanics measurements. This software was obtained from RHT-InfoDat Inc., Montreal, Quebec, Canada.
Once baseline resistance and compliance measurements are obtained, the animal is challenged with 6 breaths of saline. After 10 minutes, during which time no alterations in lung function should occur, the animal is challenged with 6 breaths of 2 or 3% ovalbumin in saline (as the antigen stimulus). Saline and antigen are delivered in each breath using a Hudson nebulizer.

[2] = RBL-2H3, read-out: Percentage Inhibition (mean) RBL-2H3 Cells
[3] = RBL-2H3, 25 μM compound, antigen-induced hexosaminidase release, read-out: Percentage Inhibition (mean) RBL-2H3 Cells

C[C@]12CCC(=O)C=C1[C@@H](O)[C@H](O)C1C2CC[C@]2(C)C(=O)CCC12 (stereo partly drawn) [Compound 7]
inhibition at 30 µM (guinea pig ileum): 54% | inhibition at 25 µM [1, 2]: 21.7% | inhibition at 80 µM (rabbit platelets): 12.3%

CC1(C)O[C@@H]2C3=CC(=O)CC[C@]3(C)C3CC[C@]4(C)C(=O)CCC4C3[C@H]2O1 (stereo partly drawn) [Compound 8]
inhibition at 80 µM (rabbit platelets; 80 μM compound, 5 min preincubation, PAF-stimulated rabbit platelets (title: 0.1 nM PAF)): 11.6%

CC1(C)O[C@@H]2C3C(CC[C@@]4(C)C3CC[C@@H]4O[Si](C)(C)C(C)(C)C)[C@@]3(C)CC[C@H](O)[C@@H](O)C3[C@H]2O1 (stereo partly drawn) [Compound 236]
percentage contraction compared to 100 μM methacholine (isolated trachea; OA 0.01 μg/ml): 5.6% | percentage contraction compared to 100 μM methacholine (isolated trachea; OA 0.03 μg/ml): 5.6% | percentage contraction compared to 100 μM methacholine (isolated trachea; OA 10.0 μg/ml): 39% | inhibition at 25 µM [1, 2]: 31% | inhibition at 80 µM (rabbit platelets): 100%

C/C=C1/CCC2C3C(CC[C@]12C)[C@@]1(C)CC[C@H](O)CC1[C@@H](O)[C@@H]3O (stereo partly drawn) [Compound 333]
inhibition at 30 µM (guinea pig ileum): 63% | inhibition at 25 µM [1, 3]: 69% | inhibition at 25 µM (mouse mast cells (MC/9)): 71% | inhibition at 1 µM (NF-κB): 34%

CC[C@H]1CCC2C3C(CC[C@@]21C)[C@@]1(C)CC[C@@H](O)CC1[C@@H](O)[C@@H]3O (stereo partly drawn) [Compound 339]
inhibition at 30 µM (guinea pig ileum): 40.6% | Lung Compliance (sensitized guinea pigs; 1 min after challenge): 0.172 ± 0.027 ml/cm H2O | Lung Resistance (sensitized guinea pigs; 1 min after challenge): 0.326 ± 0.041 cm H2O/ml/sec | Lung Compliance (sensitized guinea pigs; 2 min after challenge): 0.088 ± 0.018 ml/cm H2O | Lung Resistance (sensitized guinea pigs; 2 min after challenge): 0.522 ± 0.187 cm H2O/ml/sec | Lung Compliance (sensitized guinea pigs; 3 min after challenge): 0.060 ± 0.017 ml/cm H2O | Lung Resistance (sensitized guinea pigs; 3 min after challenge): 1.102 ± 0.047 cm H2O/ml/sec | Lung Compliance (sensitized guinea pigs; 4 min after challenge): 0.050 ± 0.013 ml/cm H2O | Lung Resistance (sensitized guinea pigs; 4 min after challenge): 0.996 ± 0.380 cm H2O/ml/sec | Lung Compliance (sensitized guinea pigs; 5 min after challenge): 0.051 ± 0.011 ml/cm H2O | Lung Resistance (sensitized guinea pigs; 5 min after challenge): 1.014 ± 0.413 cm H2O/ml/sec | Lung Compliance (sensitized guinea pigs; 10 min after challenge): 0.084 ± 0.012 ml/cm H2O | Lung Resistance (sensitized guinea pigs; 10 min after challenge): 0.440 ± 0.099 cm H2O/ml/sec | Lung Compliance (sensitized guinea pigs; 20 min after challenge): 0.123 ± 0.015 ml/cm H2O | Lung Resistance (sensitized guinea pigs; 20 min after challenge): 0.296 ± 0.031 cm H2O/ml/sec | Lung Compliance (sensitized guinea pigs; 30 min after challenge): 0.150 ± 0.012 ml/cm H2O | Lung Resistance (sensitized guinea pigs; 30 min after challenge): 0.291 ± 0.037 cm H2O/ml/sec | Lung Compliance (sensitized guinea pigs; Baseline): 0.463 ± 0.026 ml/cm H2O | Lung Resistance (sensitized guinea pigs; Baseline): 0.249 ± 0.017 cm H2O/ml/sec | Lung Compliance (sensitized guinea pigs; OA/10 s): 0.442 ± 0.025 ml/cm H2O | Lung Resistance (sensitized guinea pigs; OA/10 s): 0.239 ± 0.013 cm H2O/ml/sec | Percentage Inhibition (mean) RBL-2H3 Cells ([1]; 25 μM compound, antigen-induced hexosaminidase release, 25 µM): 76% | inhibition at 25 µM [1, 3]: 79% | Percentage Inhibition (mean) MC/9 cells (mouse mast cells (MC/9); 25 μM compound, 25 µM): 55% | inhibition at 25 µM (mouse mast cells (MC/9)): 67% | inhibition at 1 µM (NF-κB): 65%
